How the values were obtained:
[1] = test system: Human STING (hSTING, UNIPROT entry Q86WV6, residues 155-341); assay: Interaction with hSTING by differential scanning fluorimetry (DSF); type: binding; settings: 100 μM test compound, 5 μM hSTING protein
Method: In DSF, the temperature at which a protein unfolds, also called the melting temperature Tm, is measured by changes in fluorescence of a dye that binds to the hydrophobic parts of the protein. Tm shifts upon binding of a small molecule are correlated with the binding affinity of this small molecule. As target protein, Human STING (hSTING, UNIPROT entry Q86WV6, residues 155-341, MW: 21578.4 Da; protein stock solution: c=1302 μM stock solution in 20 mM Tris, 100 mM NaCl, 2 mM TCEP pH 8.8) was used, as assay buffer 20 mM Tris, 150 mM NaCl pH7.5 was added where and as necessary.
Final concentrations of components in assay: 100 μM test compounds, 5 μM target protein, “5×” SYPR Orange (from stock solution SYPRO orange solution in DMSO (invitrogen cat.-no. 56650-500ul), concentration “5000×”)
Assay Procedure: • 1) Dilutions of compound stock solutions (10 mM in DMSO) were prepared in assay buffer (20 mM Tris, 150 mM NaCl; pH7.5) • 2) 5 μl fluorescent dye stock solution (5000×SYPRO Orange in DMSO) was mixed with 19 μl target protein (1302 μM) and 976 μl assay buffer. • 3) 2 μl of this protein-dye-mixture (25×SYPRO Orange and 25 μM Protein) was added to 8 μl diluted compound solution as prepared in step 1. Final volume was 10 μl. • 4) With every 20 compounds, two negative controls were measured. • 5) The plates were prepared for duplicate measurement and centrifuged for 2 min at 1000 g. • 6) For the measurement, a CFX384 Real-Time System (Bio-Rad) was used. The run consisted of 140 cycles with 0.5° C./cycle (temperature ramp 15 s/cycle, 25° C. to 95° C.).
Data analysis: The melting curves were processed in Bio-Rad CFX Manager. Peak type was set to “negative”. Two replicates of TM (melting temperature) measurements were averaged and the standard deviation was calculated.

human STING variant HAQ = molecular target: T1, human STING variant HAQ (Homo sapiens, UniProt Q86WV6, G230A/H232R/R293Q/R71H); assay: THP1-Blue ISG IRF-inducible SEAP reporter assay, STING HAQ-variant; type: cell-based; settings: THP1-Blue ISG cells expressing STING HAQ (parental or re-introduced); 24 hours incubation; SEAP OD 620 nm
T1 construct: expressed in transfected cells; host or cells: THP1-Blue ISG: either parental cells (endogenous HAQ) or hSTING KO clone retrovirally transduced with HAQ
From the text: (§1) Activation of the STING protein expressed in cell lines results in an increase of interferon production. By the stable integration of an interferon regulatory factor (IRF)-inducible SEAP gene (secreted embryonic alkaline phosphatase) reporter construct the functional interferon signaling pathway can be monitored. Using Invivogen's THP1-Blue™ ISG colorimetric enzyme assay and a suitable optical density (OD) reader the activity of SEAP can be detected and quantified. This technique could be used to characterize pharmacological modification of the STING pathway.
(§2) Several single nucleotide polymorphisms have been identified in the human STING gene. To determine the activity of the above described compounds, THP1-Blue™ ISG reporter cell lines expressing the different human STING variants have been generated. To do so, the endogenous human STING was first deleted using the CRISPR/CAS9 system: THP1-Blue ISG cells were electroporated with ALL-IN-ONE CRISPR plasmids targeting the STING gene (purchased from Sigma encoding the gRNA and GFP as a reporter gene for successful transduction). GFP positive cells then were sorted 24 h post transfection and expanded. Cells were then dispersed in semisolid methocel medium to allow single cell clone isolations. Clones were then screened for cGAMP responsiveness using the Quanti-Blue™ reporter assay. Non-responsive clones were subsequently analysed for STING loss by western blotting and sequencing of the STING locus.
(§3) For the overexpression of the human STING variants, a confirmed THP1-Blue™ ISG hSTING KO clone was transduced with individual retroviral plasmids (MSCV-ires-GFP-Blasti) encoding the allelic variants of hSTING (WT (H232R), HAQ, R232H, AQ and R293Q). Transduced cells were sorted for different levels of GFP fluorescence and STING allele expression was analysed by western blot.
(§4) Measurements of SEAP activity were performed in THP1-Blue™ ISG cells stably expressing the different human STING isoforms and the IRF-inducible SEAP reporter construct. Cells were cultivated in RPMI1640 medium with 10% fetal calf serum, 50 μg/ml Penicillin-Streptomycin, 100 μg/ml Zeocin, and 100 μg/ml Normocin in a 37°, 95% humidity and 5% CO2 incubator.
(§5) In preparation for the assay, the cells were distributed into the assay plates with a density of 10000 cells/15 μL per well. Compounds were prepared by an 8 point serial dilution in 50% aqueous DMSO and a final dilution step into medium to ensure a final DMSO concentration of 0.5% in the assay. 5 μL of diluted compounds were added to the plates, followed by a 24 hours incubation at 37° C.
(§6) At the day of the assay, 75 μl per well of Quanti-Blue™ reagent was added to all wells of the plate and the plate was incubated another 30 minutes at 37° C. The OD at 620 nm was measured on the EnVision reader (PerkinElmer).
Data of EC50 values on STING HAQ-variant can be found in table 2a. Shown data below were either derived from the parental THP1-Blue™ ISG cell lines (which express endogenously HAQ) or from genetically engineered THP1-Blue™ ISG cell lines in which first STING has been knocked-out and the HAQ specific STING isoform has been re-introduced as described above.

[2] = molecular target: T2, human STING variant H232R (WT) (Homo sapiens, UniProt Q86WV6, H232R); assay: THP1-Blue ISG IRF-inducible SEAP reporter assay, STING H232R-variant; type: cell-based; settings: THP1-Blue ISG hSTING KO cells expressing STING H232R; 24 hours incubation
T2 construct: expressed in transfected cells; host or cells: THP1-Blue ISG hSTING KO clone, retroviral MSCV-ires-GFP-Blasti
From the text: as §1, §2, §3, §4, §5, §6

[3] = molecular target: T3, human STING variant R232H (Homo sapiens, UniProt Q86WV6); assay: THP1-Blue ISG IRF-inducible SEAP reporter assay, STING R232H-variant; type: cell-based; settings: THP1-Blue ISG hSTING KO cells expressing STING R232H; 24 hours incubation
T3 construct: expressed in transfected cells; host or cells: THP1-Blue ISG hSTING KO clone, retroviral MSCV-ires-GFP-Blasti
From the text: as §1, §2, §3, §4, §5, §6

[4] = molecular target: T4, human STING variant R293Q (Homo sapiens, UniProt Q86WV6, H232R/R293Q); assay: THP1-Blue ISG IRF-inducible SEAP reporter assay, STING R293Q-variant; type: cell-based; settings: THP1-Blue ISG hSTING KO cells expressing STING R293Q; 24 hours incubation
T4 construct: expressed in transfected cells; host or cells: THP1-Blue ISG hSTING KO clone, retroviral MSCV-ires-GFP-Blasti
From the text: as §1, §2, §3, §4, §5, §6

human STING variant AQ = molecular target: T5, human STING variant AQ (Homo sapiens, UniProt Q86WV6, G230A/H232R/R293Q); assay: THP1-Blue ISG IRF-inducible SEAP reporter assay, STING AQ-variant; type: cell-based; settings: THP1-Blue ISG hSTING KO cells expressing STING AQ; 24 hours incubation
T5 construct: expressed in transfected cells; host or cells: THP1-Blue ISG hSTING KO clone, retroviral MSCV-ires-GFP-Blasti
From the text: as §1, §2, §3, §4, §5, §6

in vitro = settings: human, Caco-2, pH 7.4
Method: Caco-2 cells were obtained from Leibniz Institute DSMZ-German Collection of Microorganisms and Cell Cultures (Braunschweig, Germany) and cultured in DMEM (Dulbecco's modified Eagle medium) containing (in final concentrations) 10% FCS (fetal calf serum), 1% NEAA (non-essential amino acids), 2 mM Glutamin, 100 U/mL Penicillin and 100 μg/mL Streptomycin. Caco-2 cells were seeded either onto 24-well Transwell inserts (Corning, #3379) for bidirectional permeability assays at a density of 160,000 cells/cm^2 and cultured for 3 weeks, with media change on every second day.
For bidirectional permeability assays 10 mM DMSO stock solutions were diluted in transport buffer (final concentrations: 128.13 mM NaCl, 5.36 mM KCl, 1 mM MgSO4, 1.8 mM CaCl2, 4.17 mM NaHCO3, 1.19 mM Na2HPO4, 0.41 mM NaH2PO4, 15 mM 2-[4-(2-hydroxyethyl)piperazin-1-yl]ethanesulfonic acid (HEPES), 20 mM glucose, pH 7.4) containing 0.25% bovine serum albumin to a final concentration of 10 μM of the test compounds and added to the apical or basal compartment. Cells were incubated with the compounds for up to 2 h. Samples from the opposite compartment were taken at different timepoints.
Compound concentrations in the compartments were quantified using a RapidFire-based high-throughput HPLC/MS/MS system (high performance liquid chromatography/mass spectrometry; BioCius) that was customized to a fully automated and flexible platform, termed RIAS. In this modified setup, the sample was aspirated by a vacuum pump into a 10 μL sample loop for 250 ms and flushed onto a C4 cartridge (3.8 μL bed volume; BioCius) with the aqueous mobile phase (99.9% water, 0.09% formic acid, and 0.01% TFA; flow rate 1.5 mL/min). Prior to bioanalysis samples were spiked with internal standard solution and diluted with acetonitrile (ACN) for protein precipitation. Measurement was operated in multiplereaction monitoring (MRM) mode. Quantification was performed using external calibration. A solid-phase extraction step retained the analyte for 3000 ms while interfering matrix (e.g., buffer components) was removed. With a simple step gradient, the analyte was back-eluted from the cartridge for 3,000 ms with the organic mobile phase (99.9% acetonitrile/methanol [1:1, v:v], 0.09% formic acid, and 0.01% TFA) and flushed into the mass spectrometer at a flow rate of 1.25 mL/min. Afterwards, the cartridge was reequilibrated with the aqueous mobile phase for 500 ms (flow rate 1.5 mL/min). The RapidFire software and a customized control software were obtained from BioCius. QuickQuan 2.3, Xcalibur 2.0.7, and XDK 2.1.0.25 were used to operate the TSQ Vantage mass spectrometer (ThermoFisher, San Jose, CA) integrated to the RapidFire system. Mass spectral data-processing software QuickCalc 7.1.9 was purchased from ThermoFisher. The Master software for the RIAS was programmed in-house using LabVIEW (version 8.6.1; National Instruments, Austin, TX). Data analysis was performed in AssayExplorer 3.2 (Symyx, Sunnyvale, CA), and correlation plots were visualized in Spotfire version 2.2.0 (TIBCO, Palo Alto, CA).
Apparent permeability coefficients in the apical to basal direction (Papp,AB) and in the basal to apical direction (Papp,BA) and efflux ratios were calculated as follows:
Efflux ratio=Papp,BA/Papp,AB
where Q is the amount of compound recovered in the receiver compartment after the incubation time t, C0 the initial compound concentration given to the donor compartment, and s the surface area of the Transwell inserts. […] In addition, transepithelial electrical resistance (TEER) values are measured for each plate before the permeability assay, and total recovery in donor and receiver compartments was determined for each compound.

T4 sequence (Q86WV6 whole entry H232R/R293Q): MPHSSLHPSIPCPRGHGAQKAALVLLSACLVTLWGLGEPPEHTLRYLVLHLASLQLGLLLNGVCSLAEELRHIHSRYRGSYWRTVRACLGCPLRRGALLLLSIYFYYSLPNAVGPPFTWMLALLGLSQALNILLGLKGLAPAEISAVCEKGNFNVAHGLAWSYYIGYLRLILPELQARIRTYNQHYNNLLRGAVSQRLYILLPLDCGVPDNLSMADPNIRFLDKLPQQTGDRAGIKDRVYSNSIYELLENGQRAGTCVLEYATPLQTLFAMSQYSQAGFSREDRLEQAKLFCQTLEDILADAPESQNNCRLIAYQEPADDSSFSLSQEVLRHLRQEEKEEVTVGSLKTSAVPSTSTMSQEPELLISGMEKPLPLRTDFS
T3 sequence (Q86WV6 whole entry, stated change not applied): as the sequence (Q86WV6 whole entry H232R/R293Q) above, with R232H, Q293R counted along it
T2 sequence (Q86WV6 whole entry H232R): as the sequence (Q86WV6 whole entry H232R/R293Q) above, with Q293R counted along it
T1 sequence (Q86WV6 whole entry R71H/G230A/H232R/R293Q): as the sequence (Q86WV6 whole entry H232R/R293Q) above, with R71H, G230A counted along it
T5 sequence (Q86WV6 whole entry G230A/H232R/R293Q): as the sequence (Q86WV6 whole entry H232R/R293Q) above, with G230A counted along it

SMILES	EC50 (human STING variant HAQ)	EC50 [2]	EC50 [3]	EC50 [4]	EC50 (human STING variant AQ)	Papp A→B at 10 μM (in vitro)	efflux ratio at 10 μM (in vitro)	TM (changes in TM, thermal shift) [1]
Cc1cc(F)cc2c(-c3cccc4nn(C)cc34)nn(-c3ccc(N4CCS(=O)(=O)CC4)nc3)c12 [Example #1, 4-(5-(5-fluoro-2′,7-dimethyl-1H,2′H-[3,4′-biindazol]-1-yl)pyridin-2-yl)thiomorpholine 1,1-dioxide]	2.3 µM	0.8 µM	0.7 µM	2.2 µM	1.8 µM	–	–	21 K
Cc1cc(F)cc2c(-c3cccc4nn(C)cc34)nn(-c3ccc(N4CCN(C=O)CC4)nc3)c12 [Example #3, 4-(5-(5-Fluoro-2′,7-dimethyl-1H,2′H-[3,4′-biindazol]-1-yl)pyridin-2-yl)piperazine-1-carbaldehyde]	1.9 µM	0.6 µM	0.6 µM	1.8 µM	1 µM	150 nm/s	1.7	21 K
Cc1c(Cl)ccc2c(-c3cccc4nn(C)cc34)nn(-c3ccc(N4CCC(S(C)(=O)=O)CC4)nc3)c12 [compound 2, 6-chloro-2′,7-dimethyl-1-(6-(4-(methylsulfonyl)piperidin-1-yl)pyridin-3-yl)-1H,2′H-3,4′-biindazole]	0.9 µM	0.3 µM	0.3 µM	0.7 µM	0.6 µM	–	–	22 K
Cc1cc(F)cc2c(-c3cccc4nn(C)cc34)nn(-c3ccc(N4CCC(C(=O)O)CC4)nc3)c12 [compound 4, 1-(5-(5-Fluoro-2′,7-dimethyl-1H,2′H-[3,4′-biindazol]-1-yl)pyridin-2-yl)piperidine-4-carboxylic acid]	0.7 µM	0.3 µM	0.3 µM	0.5 µM	0.3 µM	190 nm/s	1	24 K
Cc1c(F)ccc2c(-c3cccc4nn(C)cc34)nn(-c3ccc(N4CCC(C(=O)O)CC4)nc3)c12 [compound 7, 1-(5-(6-fluoro-2′,7-dimethyl-1H,2′H-[3,4′-biindazol]-1-yl)pyridin-2-yl)piperidine-4-carboxylic acid]	0.8 µM	0.2 µM	–	–	–	130 nm/s	1.8	–
Cc1c(Cl)ccc2c(-c3cccc4nn(C)cc34)nn(-c3ccc(N4CCC(C(=O)O)CC4)nc3)c12 [compound 9, 1-(5-(6-chloro-2′,7-dimethyl-1H,2′H-[3,4′-biindazol]-1-yl)pyridin-2-yl)piperidine-4-carboxylic acid]	0.7 µM	–	–	–	–	100 nm/s	1.5	–
Cc1c(Cl)c(F)cc2c(-c3cccc4nn(C)cc34)nn(-c3ccc(N4CCC(C(=O)O)CC4)nc3)c12 [compound 12, 1-(5-(6-chloro-5-fluoro-2′,7-dimethyl-1H,2′H-[3,4′-biindazol]-1-yl)pyridin-2-yl) piperidine-4-carboxylic acid]	0.7 µM	0.3 µM	0.3 µM	0.6 µM	0.6 µM	40 nm/s	6.4	–

More lines, main results first:

EC50 (human STING variant HAQ)	EC50 [2]	EC50 [3]	EC50 [4]	EC50 (human STING variant AQ)	Papp A→B at 10 μM (in vitro)	efflux ratio at 10 μM (in vitro)	SMILES	TM (changes in TM, thermal shift) [1]
0.6 µM	0.6 µM	0.3 µM	0.6 µM	0.4 µM	80 nm/s	2.6	Cc1cc(F)cc2c(-c3cccc4nn(C)cc34)nn(-c3ccc(N4C[C@@H]5[C@H](C4)[C@H]5C(=O)O)nc3)c12 [compound 5, (1R,5S,6r)-3-(5-(5-fluoro-2′,7-dimethyl-1H,2′H-[3,4′-biindazol]-1-yl)pyridin-2-yl)-3-azabicyclo[3.1.0]hexane-6-carboxylic acid]	26 K
0.3 µM	0.2 µM	–	–	–	90 nm/s	2.4	Cc1c(F)ccc2c(-c3cccc4nn(C)cc34)nn(-c3ccc(N4C[C@@H]5[C@H](C4)[C@H]5C(=O)O)nc3)c12 [compound 6, (1R,5S,6r)-3-(5-(6-fluoro-2′,7-dimethyl-1H,2′H-[3,4′-biindazol]-1-yl)pyridin-2-yl)-3-azabicyclo[3.1.0]hexane-6-carboxylic acid]	–
6.6 µM	2.2 µM	2.2 µM	7.8 µM	5.6 µM	–	–	Cc1cc(Cl)cc2c(-c3cccc4nn(C)cc34)nn(-c3ccc(N4CCC(C(=O)O)CC4)nc3)c12 [compound 10, 1-(5-(5-chloro-2′,7-dimethyl-1H,2′H-[3,4′-biindazol]-1-yl)pyridin-2-yl)piperidine-4-carboxylic acid]	19 K
3.9 µM	0.8 µM	0.9 µM	3 µM	2.4 µM	–	–	Cc1cc(Cl)cc2c(-c3cccc4nn(C)cc34)nn(-c3ccc(N4C[C@@H]5[C@H](C4)[C@H]5C(=O)O)nc3)c12 [compound 11, (1R,5S,6r)-3-(5-(5-chloro-2′,7-dimethyl-1H,2′H-[3,4′-biindazol]-1-yl)pyridin-2-yl)-3-azabicyclo[3.1.0]hexane-6-carboxylic acid]	24 K
0.3 µM	–	–	–	–	20 nm/s	3.6	Cc1c(Cl)c(F)cc2c(-c3cccc4nn(C)cc34)nn(-c3ccc(N4C[C@@H]5[C@H](C4)[C@H]5C(=O)O)nc3)c12 [compound 13, (1R,5S,6r)-3-(5-(6-chloro-5-fluoro-2′,7-dimethyl-1H,2′H-[3,4′-biindazol]-1-yl)pyridin-2-yl)-3-azabicyclo[3.1.0] hexane-6-carboxylic acid]	–

— US20240166629A1, “HETEROCYCLIC COMPOUNDS CAPABLE OF ACTIVATING STING” (Boehringer Ingelheim International GmbH, priority 2022, published 2024)
